Experimental data reported in ChEMBL document CHEMBL1129709, “(Hydroxyethyl) sulfonamide HIV-1 Protease inhibitors: Identification of the 2-methylbenzoyl moiety at P-2” (Bioorg Med Chem Lett, 1996).

Tests used:
[1] = biological target: T1, Human immunodeficiency virus type 1 protease (Human immunodeficiency virus 1, UniProt Q72874); test: Inhibitory activity against HIV-1 protease in spectrofluorimetric assay
CCRF-CEM [2] = test: Toxic dose was evaluated against HIV-IIIB strain of HIV-1 in CEM cell culture assay; details: Homo sapiens, CEM cells; read-out: TD50 (the source's name)
[3] = biological target: T1, Human immunodeficiency virus type 1 protease; test: Inhibitory activity was evaluated against recombinant HIV-1 protease using spectrofluorimetric assay
CCRF-CEM [4] = test: Antiviral activity was evaluated against HIV-IIIB strain of HIV-1 in CEM cell culture assay; format: functional, cell-based; details: Homo sapiens
[5] = Maximum concentration was evaluated in rats; format: ADME, organism-based; details: rat, in vivo
[6] = Half-life was evaluated in rats; format: ADME, organism-based; details: rat, in vivo
[7] = Bioavailability in rat; format: ADME, organism-based; details: in vivo

COc1ccc(S(=O)(=O)N(CC(C)C)C[C@@H](O)[C@H](Cc2ccccc2)NC(=O)c2ccccc2C(C)C)cc1
IC50 [1]: 49 nM

COc1ccc(S(=O)(=O)N(CC(C)C)C[C@@H](O)[C@H](Cc2ccccc2)NC(=O)c2ccccc2O)cc1
IC50 [1]: 900 nM

COc1ccc(S(=O)(=O)N(CC(C)C)C[C@@H](O)[C@H](Cc2ccccc2)NC(=O)c2ccc(O)cc2C)cc1
CC50 (CCRF-CEM [2]): > 10000 nM | IC50 [3]: 5 nM | EC50 (CCRF-CEM [4]): 9 nM

COc1ccc(S(=O)(=O)N(CC(C)C)C[C@@H](O)[C@H](Cc2ccccc2)NC(=O)c2ccccc2C)cc1
EC50 (CCRF-CEM [4]): 200 nM

COc1ccc(S(=O)(=O)N(CC(C)C)C[C@@H](O)[C@H](Cc2ccccc2)NC(=O)c2ccccc2C(F)(F)F)cc1
IC50 [1]: 37 nM

COc1ccc(S(=O)(=O)N(CC(C)C)C[C@@H](O)[C@H](Cc2ccccc2)NC(=O)c2cc(O)ccc2C)cc1
CC50 (CCRF-CEM [2]): > 10000 nM | IC50 [3]: 40 nM

COc1ccc(S(=O)(=O)N(CC(C)C)C[C@@H](O)[C@H](Cc2ccccc2)NC(=O)c2cccc(O)c2C)cc1
CC50 (CCRF-CEM [2]): > 10000 nM | Cmax [5]: 270 ng/mL | half-life [6]: 1 h | bioavailability [7]: 12% | EC50 (CCRF-CEM [4]): 7 nM

COc1ccc(S(=O)(=O)N(CC(C)C)C[C@@H](O)[C@H](Cc2ccccc2)NC(=O)c2cccc(C)c2)cc1
IC50 [1]: 27 nM

COc1ccc(S(=O)(=O)N(CC(C)C)C[C@@H](O)[C@H](Cc2ccccc2)NC(=O)c2ccc(N)cc2C)cc1
EC50 (CCRF-CEM [4]): 18 nM

COc1ccc(S(=O)(=O)N(CC(C)C)C[C@@H](O)[C@H](Cc2ccccc2)NC(=O)c2cccc(N)c2C)cc1
CC50 (CCRF-CEM [2]): > 10000 nM | Cmax [5]: 1800 ng/mL | half-life [6]: 1 h | bioavailability [7]: 54% | EC50 (CCRF-CEM [4]): 18 nM

COc1ccc(S(=O)(=O)N(CC(C)C)C[C@@H](O)[C@H](Cc2ccccc2)NC(=O)c2cc(N)ccc2C)cc1
CC50 (CCRF-CEM [2]): > 10000 nM | EC50 (CCRF-CEM [4]): 82 nM

COc1ccc(S(=O)(=O)N(CC(C)C)C[C@@H](O)[C@H](Cc2ccccc2)NC(=O)c2ccc(C)cc2)cc1
IC50 [1]: 15 nM
